# Laboratory results reported in patent publication US20070281991A1, “Preparation Of Phenol-Amide Compounds With Anti-Oxidizing Properties” (priority 2004, published 2007).
# Experiment: Inhibitory effect on free radical diphenylpicrylhydrazide, UV spectrophotometry at 517 nm
# Details: for Inhibition % / Absorbance at 517 nm: ethanolic solution, 20 micromoles by liter of compound, 100 micromeres by liter of radical (VIII), 30 minutes at 20° C.; for Absorbance at 517 nm: vat 1 cm, control only 1.15
# Experimental: The anti-oxidizing potential in solution of the amide-phenol compounds (I) and (II) was evaluated by the degree of their reaction with radical free diphenyl-picrylhydrazide (VIII) following C. T. Ho, Journal of Agricultural and Food Chemistry, 1999, p.
# The inhibitory effect of the free radicals claimed for the compounds (Ia) and (IIa) has been evaluated by the measure of their absorbencies in UV spectrophotometry at 517 nanometers in the presence of an excess of radical diphenylpicrylhydrazide (VIII).
# Ethanolic solutions containing 20 micromoles by liter of compound to test and 100 micromeres by liter of radical (VIII) agitated for 30 minutes at 20° C. and placed in a vat 1 cm of length.
compound,measurement,setting,value
"Cc1c(C)c2c(c(C)c1O)CCC(C)(C(=O)O)O2 (stereo not shown) [TROLOX (IVa), 6-hydroxy-2,5,7,8-tetramethyl chroman-2-carboxylic acid]",Inhibition %,,91%
same,Absorbance at 517 nm,,0.10
CCCCCCCCCCC(CO)NC(=O)c1cc(O)c(O)c(O)c1 (stereo not shown) [Gallic amide (Ia)],inhibitory activity compared with TROLOX and methyl gallate (in words),diphenylpicrylhydrazide radical test,lower than TROLOX but comparable to that of methyl gallate
same,Inhibition %,,70%
same,Absorbance at 517 nm,,0.35
"COC(=O)c1cc(O)c(O)c(O)c1 [Gallate of methyl (IIIa), methyl gallate]",Inhibition %,,71%
same,Absorbance at 517 nm,,0.33
